Measured values as given in patent publication US6563002B2, “Biscyclopropanecarboxamide compounds and pharmaceutical use thereof” (Ajinomoto Co., Inc., priority 1999, dated 2003).
≈ marks a conversion by molar mass, not a printed value.

System: NF-kappa B
Experiment: Evaluation of inhibition of NF-kappa B: β-gal reporter in immortalized HUVEC induced with IL-1β
Assay type: cell-based
Conditions: Homo sapiens; HUVEC with NF-kappa B-driven β-gal reporter; 1 ng/ml IL-1β added 30 minutes after compound; β-gal activity determined 16 hours after; read-out: NFkB inhibiting activity IC50
Text: Evaluation of Inhibition of NF-Kappa B:
Cells used in the tests were obtained by stably introducing E. coli β-galactosidase (β-gal) genes into human normal umbilical vein endothelial cells (HUVEC) immortalized with SV 40 large T antigen. The genes were those driven by SV40 minimum promoter fused with 6 times of the NF-kappa B binding motif derived, from immunoglobulin kappa light-chain enhancer. The cells were subcultured in RPMI medium containing 10% of FBS, and spread on 96-well plates in a concentration of 1×10^4/well the day before the initiation of the experiments. The compound of the present invention was dissolved in DMSO in a suitable concentration and fed into the 96-well plates so that the final concentration of DMSO would be not higher than 1%. 30 minutes after the addition of the compound, NF-kappa B activity was induced with 1 ng/ml of IL-1β in each well. The β-gal activity was determined 16 hours after. The β-gal activity was determined with a chemical photogenic substrate (Galacton-Light-Plus: Boehringer Mannheim) according to the protocol attached to the reagent.

## CC1(C)CC1C(=O)Nc1ccc(C(O)c2ccccc2)cc1NC(=O)C1CC1(C)C (stereo not shown) [Example 2]
  IC50: 1 µg/mL (≈ 2.46 µM)
